Laboratory results: US20170268027A1, “METHOD FOR SYNTHESIS OF FATTY ACIDS” (priority 2014, published 2017)
Like-named read-outs stand apart in the source and are kept apart here.

Legend:
Y. lipolytica = assay: preliminary dose studies of cerulenin on growth of Y. lipolytica; type: cell-based, Yarrowia lipolytica; details: doses tested 1 to 25 mgcerulenin·gx^−1
Yarrowia lipolytica W29 = assay: Culture B: fed-batch culture of Y. lipolytica W29 under nitrogen limitation with cerulenin pulse (growth, fatty acid profile); type: cell-based; parameters: Length of the carbon chain: unit not given here
[1] = test system: Yarrowia lipolytica JMY3501; assay: Culture D: fed-batch culture of Y. lipolytica JMY3501 with cerulenin pulse (fatty acid profile); type: cell-based
Candida lypolytica = details: cited from earlier work
[2] = between injection and 3 h after injection
[3] = −2 h (before the pulse, baseline)

In the case of `C/C=C/C/C=C/CCC(=O)[C@H]1O[C@H]1C(N)=O` [cerulenin], the “dose that completely inhibits growth” value (Y. lipolytica) was 15 mgcerulenin·gx^−1, the Degree of unsaturation (Yarrowia lipolytica W29; 0 h (time of the pulse)) was 0.95 and the “Length of the carbon chain” value (Yarrowia lipolytica W29; 0 h (time of the pulse)) was 16.98. The “time of appearance of short-chain fatty acids after the pulse” value (Yarrowia lipolytica W29; 7 mgcerulenin·gx^−1) was 15 min, the “culture time after which the effect of partial inhibition of elongation kinetics disappeared” value (Yarrowia lipolytica W29; 7 mgcerulenin·gx^−1 pulse) was 9 h and the “increase of mass content of palmitic acid (C16:0) relative to before the pulse” value (Yarrowia lipolytica W29; 3 h after pulse) was 0.014 gAG·gx^−1. For the same molecule, the “increase of mass content of palmitoleic acid (C16:1) relative to before the pulse” value (Yarrowia lipolytica W29; 3 h after pulse) was 0.023 gAG·gx^−1, the Degree of unsaturation (Yarrowia lipolytica W29; +15 min. after the pulse) was 0.92 and the “Length of the carbon chain” value (Yarrowia lipolytica W29; +15 min. after the pulse) was 16.83. For the same molecule, the Degree of unsaturation (Yarrowia lipolytica W29; +1 h after the pulse) was 0.73, the “Length of the carbon chain” value (Yarrowia lipolytica W29; +1 h after the pulse) was 16.3 and the Degree of unsaturation (Yarrowia lipolytica W29; +3 h after the pulse) was 0.75. For the same molecule, the “Length of the carbon chain” value (Yarrowia lipolytica W29; +3 h after the pulse) was 15.3, the “accumulation of short-chain fatty acids” value (Yarrowia lipolytica W29; after 3 h of culture after the pulse of 7 mgcerulenin·gx^−1) was 24.5% and the “mass fraction of the fatty acid C18:3” value (Yarrowia lipolytica W29; after the pulse) was 6%. The “mass fraction F4,8 multiplied by” value (Yarrowia lipolytica W29; at 3 h) was 70, the “mass fraction F9,12 multiplied by” value (Yarrowia lipolytica W29; at 3 h) was 28 and the “mass fraction F13,15 multiplied by” value (Yarrowia lipolytica W29; at 3 h) was 15. For the same molecule, the “factor of multiplication of the specific rate of synthesis of short-chain or medium-chain fatty acid” value (Yarrowia lipolytica W29; before vs 3 h after the pulse) was 14, the “average degree of unsaturation of neo-synthesised fatty acids” value (Yarrowia lipolytica W29; [2]) was 0.6 and the “average number of carbon atoms of neo-synthesised fatty acids” value (Yarrowia lipolytica W29; [2]) was 12.74 carbon atoms. The “effect on the growth dynamic of the yeast” value (Yarrowia lipolytica W29; dose 7 μgcerulenin·mgx^−1, nitrogen limitation) was “no effect”, the “total fatty acids accumulated” value (Yarrowia lipolytica W29; during the 10 h following the cerulenin pulse) was 3% and the “variation of the growth rate” value (Yarrowia lipolytica W29; during the 10 h following the first injection, 7 mgcerulenin·gx^−1) was “less than 5%”. For the same molecule, the “specific speed of production of fatty acid” value (Yarrowia lipolytica W29; following the addition of cerulenin (0.004 before)) was 0.0017 gAG·gx·h^−1, the “variation of mass content of fatty acids C4:0-C8:0 relative to before the pulse” value (Yarrowia lipolytica W29; in 3 h) was 0.05 gAG·gx^−1 and the “variation of mass content of fatty acids C9:0-C12:0 relative to before the pulse” value (Yarrowia lipolytica W29; in 3 h) was 0.07 gAG·gx^−1. The “variation of mass content of fatty acids C13:0-C15:0 relative to before the pulse” value (Yarrowia lipolytica W29; in 3 h) was 0.07 gAG·gx^−1, the Degree of unsaturation (Yarrowia lipolytica W29; [3]) was 0.97 and the “Length of the carbon chain” value (Yarrowia lipolytica W29; [3]) was 16.97. For the same molecule, the “effect on accumulation of short-chain fatty acids” value ([1]; 0.25 mgcerulenin·gx^−1, lipid accumulation phase) was “increase the accumulation of short-chain fatty acids”, the “C12 content in the fatty acid composition” value ([1]; after pulse of 0.25 mgcerulenin·gx^−1 (4% before)) was 7% and the “C14 content in the fatty acid composition” value ([1]; after pulse of 0.25 mgcerulenin·gx^−1 (7% before)) was 14%. The effect on growth (Candida lypolytica; substrate containing n-tetradecane to n-octadecane) was “without exerting any effect” and the effect on growth (Candida lypolytica; substrate containing n-undecane or n-dodecane) was “completely blocks the growth”.
